# Results from patent publication US20040067932A1 (priority 2002, published 2004).
# Read-outs that look alike come from different tables or passages of the source.
# Assays:
# [1] = tested on: A375 cells; test: Flow cytometry (PI) G2/M accumulation and sub-G1 apoptosis, A375; assay type: cell-based, human; settings: for EC50: Homo sapiens, A-375, 24 h
# Procedure: (§1) A375 and NCTC2544 adherent cells were trypsinized, mixed with floating cells, washed with PBS and permeabilised in 70% (vol/vol) ethanol/PBS solution at 4° C. for at least 24 hours. Jurkat, HeL023 and PBMC cells were centrifuged for 10 minutes at 1000×g. The cell pellet was then resuspended and permeabilised in 70% (vol/vol) ethanol/PBS solution at 4° C. for at least 24 hours. The cells were washed with PBS and the DNA was stained with a PBS solution, containing 20 μg/ml of propidium iodide and 100 μg/ml of RNAse, at room temperature for 30 minutes. Cells were analysed by FACScan (Becton-Dickinson) and the content of DNA was evaluated by the Cell-LISYS program (Becton-Dickinson). Cell distribution among cell cycle phases and apoptotic cells was evaluated as previously described (Secchiero et al., 2001). Briefly, the cell cycle distribution is shown as the percentage of cells containing 2n (G1 phase), 4n (G2 and M phases), 4n>x>2n. DNA amount (S phase) judged by propidium iodide staining. The apoptotic population is the percentage of cells with DNA content lower than 2n.
# Cell proliferation and apoptosis are quantified by flow cytometer analysis after propidium-iodide (PI) DNA staining.
# [2] = tested on: NCTC2544 cells; test: Flow cytometry (PI) G2/M accumulation and sub-G1 apoptosis, NCTC2544; assay type: cell-based, human; settings: NCTC 2544, DMSO (no antagonist); for EC50: Homo sapiens
# Procedure: as §1
# (§2) To verify the role of A3 receptor antagonists on paclitaxel and vindesine mediated alteration of cell proliferation and apoptosis, testing was performed with additional cell lines. […] Experimental conditions are similar to those for the A375 cell testing.
# [3] = tested on: human lung carcinoma SKMES; test: MTT growth inhibitory assay, SKMES; assay type: cell-based
# [4] = tested on: A375 melanoma cells; test: Colony formation assay of A375 cells; assay type: cell-based, human; settings: paclitaxel 0.75 ng/ml alone, 7 days
# Procedure: FIG. 2 illustrates colony formation assay of A375 cells. Cells were treated with different drugs and colonies were counted after 7 days. The values represent the mean ±SEM of four independent experiments. D=DMSO (control); T=paclitaxel, 0.75 ng/ml; M=MRE 3008F20, 10 μM; C=CI-IB-MECA, 10 μM; TM=paclitaxel plus MRE 3008F20; TC=paclitaxel plus CI-IB-MECA treated cells. *P<0.01 TM versus T. Analysis was by ANOVA followed by Dunnett's test.;
# Control plates received the same volume of DMSO alone. After 7 days of growth at 37° C. in humidified atmosphere containing 5% CO2, the cells were fixed with absolute methanol for 5′ and stained with 1/10 Giemsa/phosphate-buffered saline (PBS) staining solution for 10 minutes. Staining solution was removed and colonies of greater than 30 cells were scored as survivors. For each treatment, six individual wells were scored.
# Colony formation assay experiments were performed on A375 melanoma cells treated with increasing concentration of paclitaxel (0.25-75 ng/ml). A3 stimulation is achieved with the selective agonist CI-IB-MECA while A3 blockade is obtained with the selective antagonist MRE 3008F20. […] (FIG. 2)
# [5] = tested on: Jurkat cells; test: Flow cytometry (PI) G2/M accumulation and sub-G1 apoptosis, Jurkat; assay type: cell-based, human; settings: DMSO (no antagonist); for EC50: Homo sapiens
# Procedure: as §1, §2
# [6] = tested on: PBMC blasts; test: Flow cytometry (PI) G2/M accumulation, PBMC blasts; assay type: cell-based; settings: Homo sapiens, DMSO (no antagonist)
# Procedure: Cells are passaged two or three times weekly at a ratio between 1:5 and 1:10. Lymphocytes were isolated from buffy coats kindly provided by the Blood Bank of the University Hospital of Ferrara. Blood donated by healthy volunteers, after informed consent for research was obtained. Lymphocytes were isolated by density gradient centrifugation (Ficoll/Histopaque 1.077 g/ml). The cells are stimulated with purified phytohemoagglutinin (1 μg/ml) and expanded in RPMI medium added of interleukin 2 (20 Units/ml) and 10% fetal calf serum.
# Jurkat, HeL023 and PBMC cells were centrifuged for 10 minutes at 1000×g. The cell pellet was then resuspended and permeabilised in 70% (vol/vol) ethanol/PBS solution at 4° C. for at least 24 hours. The cells were washed with PBS and the DNA was stained with a PBS solution, containing 20 μg/ml of propidium iodide and 100 μg/ml of RNAse, at room temperature for 30 minutes. Cells were analysed by FACScan (Becton-Dickinson) and the content of DNA was evaluated by the Cell-LISYS program (Becton-Dickinson). Cell distribution among cell cycle phases and apoptotic cells was evaluated as previously described (Secchiero et al., 2001). Briefly, the cell cycle distribution is shown as the percentage of cells containing 2n (G1 phase), 4n (G2 and M phases), 4n>x>2n. DNA amount (S phase) judged by propidium iodide staining. […]
# [7] = tested on: human melanoma A375 cell line; test: MTT growth inhibitory assay, A375; assay type: cell-based; settings: for IC50: Homo sapiens
# Procedure: (§3) One of the growth inhibitory assays is the MTT assay. Cells (1000-1500 cells/well) are seeded in a 96-well micro culture plate in a total volume of 100 μl/well. After overnight incubation in a humidified incubator at 37° C. with 5% CO2-95% air, chemotherapeutic drug solutions diluted with culture medium at various concentrations are added in the amount of 100 μl to each well. The plates are placed in a humidified incubator at 37° C. with 5% CO2-95% air for 7-10 days. The plates are then centrifuged briefly and 100 μl of the growth medium is removed. Cell cultures are incubated with 50 μl of MTT [3-(4,5-dimethylthiazol-2-yl)-2,5-diphenyl-tetrazolium bromide] reagent (1 mg/ml in Dulbecco's phosphate-buffered saline) for 4 hr at 37° C. The resultant purple formazan precipitate is solubilized with 200 μl of 0.04 N HCl in isopropanol. Absorbance is measured at a wavelength of 595 nm and at a reference wavelength of 655 nm using a Bio-Rad Model 3550 Microplate Reader. Preferably, all tests are run in duplicate for each dose level.
# (§4) The EZED50 computer program estimates the concentration of agent that inhibits cell growth by 50% as compared to the control cells. This is termed the IC50 and is determined by curve fitting test data using the following four logistic equation. [formula]
# (§5) Inhibitory assay testing is also used to determine enhanced therapeutic effects from combining A3 receptor antagonists with other tumor inhibiting agents. The inhibitory cell growth assays are run with and without selected concentrations of A3 receptor antagonists. An enhanced therapeutic effect is present when the IC50 of the tumor inhibiting agent is lower with the A3 receptor antagonist.
# (§6) Quantitatively, the enhancement factor (EF) is calculated by dividing the IC50 value of the tumor inhibiting agent for a tumor cell line by the IC50 value of the agent with A3 receptor antagonist for the same cell line: [formula]
# [8] = tested on: human colon carcinoma HT29 cell line; test: MTT growth inhibitory assay, HT29; assay type: cell-based; settings: HT-29
# Procedure: as §3, §4, §5, §6
# [9] = tested on: HeL023 cells; test: Flow cytometry (PI) G2/M accumulation and sub-G1 apoptosis, HeL023; assay type: cell-based, human; settings: DMSO (no antagonist); for EC50: Homo sapiens
# Procedure: as §1, §2
# [10] = tested on: human pancreatic cancer Panc-1; test: MTT growth inhibitory assay, Panc-1; assay type: cell-based
# Procedure: as §3, §4, §5, §6
# [11] = read-out: paclitaxel EC50 (G2/M accumulation)
# [12] = read-out: vindesine EC50 (G2/M accumulation)
smiles,measurement,setting,value
CC(=O)O[C@H]1C(=O)[C@@]2(C)[C@H]([C@H](OC(=O)c3ccccc3)[C@]3(O)C[C@H](OC(=O)[C@H](O)[C@@H](NC(=O)c4ccccc4)c4ccccc4)C(C)=C1C3(C)C)[C@]1(OC(C)=O)CO[C@@H]1C[C@@H]2O [paclitaxel],"paclitaxel ECMAX (sub-G1, maximal apoptosis)","[1]; A375, DMSO (no antagonist)",6.00 ± 0.63 ng/mL
same,EC50,[1]; [11],16.6 ± 2 ng/mL
same,EC50,[2]; [11],2.69 ± 0.28 ng/mL
same,paclitaxel ECMAX (sub-G1),[2],2.69 ± 0.23 ng/mL
same,IC50,"[3]; Homo sapiens, SKMES, paclitaxel 0.0001-0.05 μg/ml, alone, read-out: IC50 of paclitaxel, A3 antagonist none",3.3 ng/mL
same,IC50,"[3]; Human Lung Carcinoma SKMES, read-out: IC50 growth inhibition, agent used separately",2.6 ± 0.7 ng/mL
same,"colony formation, % of the control",[4],64%
same,paclitaxel ECMAX (sub-G1),[5],3.32 ± 0.52 ng/mL
same,EC50,[5]; [11],2.96 ± 0.31 ng/mL
same,EC50,[6]; [11],5.3 ± 0.6 ng/mL
same,"IC50 of paclitaxel, A3 antagonist none","[7]; A375, paclitaxel 0.0001-0.05 μg/ml, alone (control of each antagonist series)",4.2 ng/mL
same,IC50,"[7]; A-375, A375, paclitaxel 0.0001-0.05 μg/ml, alone (control of each antagonist series), read-out: IC50 of paclitaxel, A3 antagonist none",4.4 ng/mL
same,IC50,"[7]; A-375, A375, paclitaxel 0.0002-0.1 μg/ml, alone, read-out: IC50 of paclitaxel, A3 antagonist none",4.6 ng/mL
same,IC50,"[7]; A-375, Human Melanoma A375, read-out: IC50 growth inhibition, agent used separately",4 ± 0.2 ng/mL
same,IC50,"[8]; Human Colon Carcinoma HT29, read-out: IC50 growth inhibition, agent used separately",1.12 ± 0.3 ng/mL
same,IC50,"[8]; Homo sapiens, HT29, paclitaxel 0.0001-0.05 μg/ml, alone, read-out: IC50 of paclitaxel, A3 antagonist none",2.5 ng/mL
same,paclitaxel ECMAX (sub-G1),[9],33.42 ± 3.55 ng/mL
same,EC50,[9]; [11],50.6 ± 5.3 ng/mL
same,IC50,"[10]; Homo sapiens, Panc-1, paclitaxel 0.0001-0.05 μg/ml, alone, read-out: IC50 of paclitaxel, A3 antagonist none",2.9 ng/mL
same,IC50,"[10]; Human Pancreatic Cancer Panc-1, read-out: IC50 growth inhibition, agent used separately",2.7 ± 0.3 ng/mL
CC[C@]1(O)C[C@@H]2CN(CCc3c([nH]c4ccccc34)[C@@](C(=O)OC)(c3cc4c(cc3OC)N(C)[C@H]3[C@@](O)(C(N)=O)[C@H](O)[C@]5(CC)C=CCN6CC[C@]43[C@@H]65)C2)C1 [vindesine],"vindesine ECMAX (sub-G1, maximal apoptosis)","[1]; A375, DMSO (no antagonist)",3.54 ± 0.42 nM
same,EC50,[1]; [12],1.9 ± 0.2 nM
same,EC50,[2]; [12],0.89 ± 0.08 nM
same,vindesine ECMAX (sub-G1),[2],2.50 ± 0.27 nM
same,EC50,[5]; [12],0.93 ± 0.08 nM
same,EC50,[6]; [12],1.1 ± 0.9 nM
same,vindesine ECMAX (sub-G1),[9],33.11 ± 4.02 nM
same,EC50,[9]; [12],25.8 ± 3.25 nM
